# In PMC6981581, “N-(2-Arylmethylthio-4-Chloro-5-Methylbenzenesulfonyl)amide Derivatives as Potential Antimicrobial Agents—Synthesis and Biological Studies” (International Journal of Molecular Sciences, 2019):
# Experiments:
# S.aureus 50 (MRSA) = experiment: Broth dilution MIC/MBC, clinical MRSA isolate; assay type: cell-based; details: Staphylococcus aureus, clinical MRSA S.aureus 50
# Source text: (§1) […]. Both MRSA and MSSA strains were derived from various human infections.
# (§2) […]. Five methicillin-resistant S. aureus strains were isolated from nose (n = 1), bronchoalveolar lavage (n = 1), sputum (n = 1), wound (n = 1), and blood (n = 1); five methicillin-susceptible S. aureus strains were isolated from throat (n = 1), bronchoalveolar lavage (n = 1), sputum (n = 1), abscess (n = 1), and blood (n = 1).
# (§3) The identity of S. aureus isolates was confirmed with conventional methods and with Pastorex Staph-Plus latex agglutination kit (Bio-Rad, Marnes-la-Coquette, France) and verified applying the polymerase chain reaction (PCR) of S. aureus-specific region of the thermonuclease gene, nuc. Resistance to methicillin was first verified using cefoxitin disk (30 µg), and then, identified based on the presence of mecA gene. S. aureus ATCC®25923 (methicillin-susceptible) and S. aureus ATCC®43300 (MDR) were applied as the reference strains. Both the reference and clinical strains were stored at −80 °C, in Tryptic Soy Broth (TSB, Becton-Dickinson, Franklin Lakes, NJ, USA) supplemented with 15% glycerol.
# (§4) A broth dilution method was used to determine minimal inhibitory concentration (MIC) for tested compounds as recommended by Clinical Laboratory Standards Institute (CLSI) guidelines. Investigated compounds were diluted in Mueller Hinton Broth 2 (Sigma-Aldrich Co., St. Louis, MO, USA) in polypropylene 96-well plates and initial inoculum 5 × 10^5 cfu/mL were incubated at 37 °C for 18 h. MIC was taken as the lowest drug concentration at which an observable growth was inhibited. […] The loopful (10 µL) of the tested sample was transferred to Tryptic Soy Agar (TSA, Becton-Dickinson, Franklin Lakes, NJ, USA) and incubated at 37 °C for 48 h. […] Drug Solutions were made fresh on the day of the assay. All experiments were performed in triplicate.
# S.aureus 51 (MRSA) = experiment: Broth dilution MIC/MBC, clinical MRSA isolate; assay type: cell-based; details: Staphylococcus aureus, clinical MRSA S.aureus 51
# Source text: as §1, §2, §3, §4
# S.aureus 52 (MRSA) = experiment: Broth dilution MIC/MBC, clinical MRSA isolate; assay type: cell-based; details: Staphylococcus aureus, clinical MRSA S.aureus 52
# Source text: as §1, §2, §3, §4
# S.aureus 53 (MRSA) = experiment: Broth dilution MIC/MBC, clinical MRSA isolate; assay type: cell-based; details: Staphylococcus aureus, clinical MRSA S.aureus 53
# Source text: as §1, §2, §3, §4
# S.aureus 54 (MRSA) = experiment: Broth dilution MIC/MBC, clinical MRSA isolate; assay type: cell-based; details: Staphylococcus aureus, clinical MRSA S.aureus 54
# Source text: as §1, §2, §3, §4
# S.aureus 55 (MSSA) = experiment: Broth dilution MIC/MBC, clinical MSSA isolate; assay type: cell-based; details: Staphylococcus aureus, clinical MSSA S.aureus 55
# Source text: as §1, §2, §3, §4
# S.aureus 56 (MSSA) = experiment: Broth dilution MIC/MBC, clinical MSSA isolate; assay type: cell-based; details: Staphylococcus aureus, clinical MSSA S.aureus 56
# Source text: as §1, §2, §3, §4
# S.aureus 57 (MSSA) = experiment: Broth dilution MIC/MBC, clinical MSSA isolate; assay type: cell-based; details: Staphylococcus aureus, clinical MSSA S.aureus 57
# Source text: as §1, §2, §3, §4
# S.aureus 58 (MSSA) = experiment: Broth dilution MIC/MBC, clinical MSSA isolate; assay type: cell-based; details: Staphylococcus aureus, clinical MSSA S.aureus 58
# Source text: as §1, §2, §3, §4
# S.aureus 59 (MSSA) = experiment: Broth dilution MIC/MBC, clinical MSSA isolate; assay type: cell-based; details: Staphylococcus aureus, clinical MSSA S.aureus 59
# Source text: as §1, §2, §3, §4
# MRSA 51 biofilm = experiment: Biofilm inhibition assay (crystal violet); assay type: cell-based, Staphylococcus aureus; details: MRSA 51, 4 × MIC
# Procedure: (§5) For many decades, S. aureus has been identified as the most common etiologic agent of device related infections, associated with biofilm formation. These infections are hard to cure because the specific structure of biofilm confers resistance to the host immune response and to the action of antibiotics.
# (§6) Then, 100 µL bacterial suspension prepared from fresh overnight culture by diluting with TSB to obtain the initial inoculum 2 × 10^6 CFU/mL was added. The plates were incubated for 24 h at 37 °C. After the incubation, the wells were discarded and were gently rinsed three times with PBS to remove planktonic staphylococcal cells. Then, contents of the wells were discarded and the biofilm was fixed with 200 µL methanol for 20 min and dried at room temperature for 30 min. The biofilm was stained by adding 200 µL 1.8% crystal violet solution for 15 min. After staining, the plates were rinsed with water and 200 µL bleaching solution (30% ethanol, 30% glacial acetic acid, 40% water) added for 15 min to dissolve the remaining crystal violet. A microplater reader was used to measure the absorbance of the adherent biofilm at 570 nm (OD570). […] The negative control included only the growth medium.
# MRSA 52 biofilm = experiment: Biofilm inhibition assay (crystal violet); assay type: cell-based, Staphylococcus aureus; details: MRSA 52, 4 × MIC
# Procedure: as §5, §6
# MSSA 58 biofilm = experiment: Biofilm inhibition assay (crystal violet); assay type: cell-based, Staphylococcus aureus
# Procedure: as §5, §6
# MSSA 59 biofilm = experiment: Biofilm inhibition assay (crystal violet); assay type: cell-based, Staphylococcus aureus; details: MSSA 59, 4 × MIC
# Procedure: as §5, §6
smiles,measurement,setting,value
"Cc1cc(S(=O)(=O)NC(=O)CCC2CCCCC2)c(SCc2cccc(C(F)(F)F)c2)cc1Cl [Compound 10, N-[4-Chloro-5-methyl-2-(3-trifluoromethylbenzylthio)benzenesulfonyl]-3-cyclohexylpropanamide]",MBC,S.aureus 50 (MRSA); read-out: MBC,> 128 µg/mL
same,MIC,S.aureus 50 (MRSA); read-out: MIC,4 µg/mL
same,MBC,S.aureus 51 (MRSA); read-out: MBC,> 128 µg/mL
same,MIC,S.aureus 51 (MRSA); read-out: MIC,4 µg/mL
same,MBC,S.aureus 52 (MRSA); read-out: MBC,> 128 µg/mL
same,MIC,S.aureus 52 (MRSA); read-out: MIC,4 µg/mL
same,MBC,S.aureus 53 (MRSA); read-out: MBC,> 128 µg/mL
same,MIC,S.aureus 53 (MRSA); read-out: MIC,4 µg/mL
same,MBC,S.aureus 54 (MRSA); read-out: MBC,> 128 µg/mL
same,MIC,S.aureus 54 (MRSA); read-out: MIC,4 µg/mL
same,MBC,S.aureus 55 (MSSA); read-out: MBC,> 128 µg/mL
same,MIC,S.aureus 55 (MSSA); read-out: MIC,4 µg/mL
same,MBC,S.aureus 56 (MSSA); read-out: MBC,> 128 µg/mL
same,MIC,S.aureus 56 (MSSA); read-out: MIC,4 µg/mL
same,MBC,S.aureus 57 (MSSA); read-out: MBC,> 128 µg/mL
same,MIC,S.aureus 57 (MSSA); read-out: MIC,4 µg/mL
same,MBC,S.aureus 58 (MSSA); read-out: MBC,> 128 µg/mL
same,MIC,S.aureus 58 (MSSA); read-out: MIC,4 µg/mL
same,MBC,S.aureus 59 (MSSA); read-out: MBC,> 128 µg/mL
same,MIC,S.aureus 59 (MSSA); read-out: MIC,4 µg/mL
same,inhibition of biofilm formation,MRSA 51 biofilm,88–89%
same,inhibition of biofilm formation,MRSA 52 biofilm,88–89%
same,inhibition of biofilm formation,"MSSA 58 biofilm; MSSA 58, concentration equal to the MIC",about 91%
same,inhibition of biofilm formation,"MSSA 58 biofilm; MSSA 58, ½ MIC (2 μg/mL)",67%
same,inhibition of biofilm formation,MSSA 59 biofilm,91%
